Here are results for three compounds from BindingDB's records for patent US12071425 (Genentech, 2024).

For the assay, the target named is T1, Serine/threonine-protein kinase/endoribonuclease IRE1 [D688N] (Homo sapiens, UniProt O75460, D688N).
T1 construct: gene ERN1
T1 sequence (O75460 19-977 D688N limits assumed): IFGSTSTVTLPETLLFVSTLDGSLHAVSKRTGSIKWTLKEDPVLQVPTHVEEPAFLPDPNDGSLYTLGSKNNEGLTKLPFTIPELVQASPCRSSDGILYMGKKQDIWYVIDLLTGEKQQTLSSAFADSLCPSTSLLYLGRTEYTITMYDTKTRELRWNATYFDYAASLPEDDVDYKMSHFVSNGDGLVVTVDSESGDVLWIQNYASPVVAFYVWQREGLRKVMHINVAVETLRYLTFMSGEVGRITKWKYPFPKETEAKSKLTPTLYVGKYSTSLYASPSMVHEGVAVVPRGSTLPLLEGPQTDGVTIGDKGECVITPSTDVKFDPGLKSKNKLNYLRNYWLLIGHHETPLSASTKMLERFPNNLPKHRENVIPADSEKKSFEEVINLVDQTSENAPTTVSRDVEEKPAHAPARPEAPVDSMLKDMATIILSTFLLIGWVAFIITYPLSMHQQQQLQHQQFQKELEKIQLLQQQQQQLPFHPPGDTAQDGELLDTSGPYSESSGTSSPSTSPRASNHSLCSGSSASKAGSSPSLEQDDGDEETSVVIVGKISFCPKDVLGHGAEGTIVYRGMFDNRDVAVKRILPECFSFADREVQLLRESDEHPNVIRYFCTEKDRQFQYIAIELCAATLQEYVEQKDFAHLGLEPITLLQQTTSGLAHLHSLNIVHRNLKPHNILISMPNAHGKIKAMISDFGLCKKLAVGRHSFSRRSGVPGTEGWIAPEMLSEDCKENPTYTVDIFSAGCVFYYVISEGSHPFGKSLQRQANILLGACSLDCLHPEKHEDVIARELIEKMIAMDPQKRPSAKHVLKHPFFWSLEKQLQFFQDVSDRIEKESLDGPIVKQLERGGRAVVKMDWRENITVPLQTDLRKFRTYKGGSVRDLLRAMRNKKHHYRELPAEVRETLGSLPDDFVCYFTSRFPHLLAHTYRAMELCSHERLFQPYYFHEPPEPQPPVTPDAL
Put plainly: IRE1α TR-FRET Competition Binding Assay. The method, then: To determine the affinity of compound binding to the kinase domain of IRE1 alpha, a Time Resolved Fluorescence Resonance Energy Transfer (TR-FRET) competition assay was used. A His-tagged IRE1 alpha kinase dead construct containing the kinase and RNase domains (KR, AA G547-L977, D688N) was expressed in Sf9 insect cells. The purified protein (final concentration 0.006 μM micromolar) was pre-incubated with anti-His Europium labeled antibody (Life Technologies PV5596, final concentration 0.002 μM micromolar) for one hour at 4° C. in 1X TR-FRET Assay Buffer (50 mM HEPES, pH 7.5.10 mM MgCl2, 0.083 mM Brij 35, 1 mM DTT, and 0.1% bovine gamma globulin) prior to addition to test compounds. A fluorescent labeled probe based on an ATP competitive inhibitor (Kinase Tracer 236, Life Technologies PV5592) is added to a final concentration of 0.1 μM (micromolar). Reactions were carried out for one hour at room temperature in a final volume of 20 μL (microliter) in 384 well white ProxiPlates (Perkin Elmer 6008289). Binding of the tracer to the IRE1 protein alpha was detected in an Envision instrument (PerkinElmer) equipped with a TRF laser option and a LANCE/Delfia Dual/Bias D400/D630 mirror (Ex 347 nm, 1st Em 665 nm, 2nd Em 615 nm).
As for `O=S(=O)(Nc1ccc(Oc2ncccc2-c2ccnc(N[C@H]3CCCNC3)n2)c(F)c1F)c1ccccc1Cl` [US12071425, Compound 227], the IC50 was found to be 4.8 nM. As for `O=S(=O)(CC(F)(F)F)Nc1c(F)cc(Oc2ncccc2-c2ccnc(N[C@@H]3CNC[C@@H](F)C3)n2)c(F)c1F` [US12071425, Compound 260], the figure is 2.6 nM; as for `CN(C)[C@H]1CC[C@H](Nc2nccc(-c3cccnc3Oc3cc(F)c(NS(=O)(=O)CCC(F)(F)F)c(F)c3F)n2)CC1` [US12071425, Compound 382], 2 nM.
